Structures can show the parent of a compound that is named as a salt.
Columns and labels:
[1] = system: cardiac carbohydrate, lactate and fat; experiment: Cardiac carbohydrate, lactate and fat under the influence of isoproterenol in an anoxic condition; type: in vivo, male rats of wister-strain; conditions: rats, 1.0 mg/kg i.v.
Experimental: Male rats of wister - strain served as experimental animals. Isoproterenol in a dose of 3.0 μg/kg was injected intravenously to the animals, and 5 minutes later, the rat was taken to a closed room which was filled with a mixture gas consisting of 5 % oxygen and 95 % nitrogen. After the rat was kept in the above mentioned gas chamber for 5 minutes, they were killed by cervical dislocation. The anoxic state of the heart was measured by the cardiac carbohydrate (glycogen, pyruvate), lactate and fat [non-esterifiedfatty acid (hereinafter, referred to as NEFA), triglyceride (hereinafter, referred to as TG)].

[2] = Hypoxia test (mouse), KCN, survival time; type: in vivo, male mice (dd-strain); conditions: KCN 10 mg/kg i.p.
Acute toxicity = type: in vivo; conditions: for LD50: mouse, in vivo, dd-strain male mice
Experimental: Acute toxicity of 1-(3'-pyridyl)-3-(2'-hydroxyethyl)thiourea hydrochloride was determined in dd-strain male mice.

[3] = Prolonging effect on lethal time under various hypoxic conditions (mice and rats, all tests together); type: in vivo, mice (dd-strain) and rats (wister-strain); conditions: 100, 300 mg/kg p.o., 100 mg/kg s.c., and 30 mg/kg i.v.
[4] = Hypoxia test (mouse), reduced pressure, survival time; type: in vivo, male mice (dd-strain); conditions: reduced pressure 145 mmHg
Experimental: (§1) Male mice (dd-strain) and rats (wister-strain) were taken to a closed room which was filled with a gas mixture consisting of 1.5 % oxygen and 98.5 % nitrogen, or was conditioned in reduced atmospheric pressure (145 mmHg). In the other hand, mice and rats were given sodium cyanide (10 mg/kg, i.p.). These animals died after a few minutes in such conditions. 1-(3'-Pyridyl)-3-(2'-hydroxyethyl)thiourea HCl was given 1 hour before these hypoxia tests.
(§2) In the Tables data mean the increase percent of the survival time to that of control.

Na^+, K^+ - ATPase = experiment: Cerebral Na^+, K^+ - ATPase after cold injury (freezing lesion cerebral edema); type: in vivo; conditions: rats
Experimental: (§3) Cerebral edema was induced in rats by a freezing lesion (dry ice) made on the exposed dura of unilateral hemisphere. Edema was measured by the increase in water content of gray and white matter, the increase in phosphorylase activity and the decrease in Na^+, K^+ - ATPase activity of the injured brain. 1-(3'-Pyridyl)-3-(2'-hydroxyethyl)thiourea HCl was given 1 hour before and 24 hours after, and the animals were killed by decapitation 48 hours after the lesion treatment.

[5] = Hypoxia test (rat), normal pressure, survival time; type: in vivo, rats (wister-strain); conditions: 1.5 % O2 + 98.5 % N2
Experimental: as §1, §2

[6] = Hypoxia test (rat), reduced pressure, survival time; type: in vivo, rats (wister-strain); conditions: reduced pressure 145 mmHg
Experimental: as §1, §2

[7] = Hypoxia test (mouse), normal pressure, survival time; type: in vivo, male mice (dd-strain); conditions: 1.5 % O2 + 98.5 % N2
Experimental: as §1, §2

[8] = Brain water content after triethyl tin sulfate cerebral edema; type: in vivo; conditions: rats; for H2O, Gray: gray matter; for H2O, White: white matter
Experimental: Cerebral edema was induced in rats by a triethyl tin sulfate (5.0 mg/kg, i.p.) made on the whole brain. Edema was measured by the increase in water content, lactate, phosphorylase activity and the decrease in glycogen, Na^+, K^+ - ATPase activity of the whole brain.
1-(3'-Pyridyl)-3-(2'-hydroxyethyl)thiourea HCl was given 1 hour before and 24, 48 hours after the lesion treatment and the animals were killed by decapitation 72 hours after the lesion treatment.

[9] = Cerebral water content after cold injury (freezing lesion cerebral edema); type: in vivo; conditions: rats
Experimental: as §3

[10] = Hypoxia test (rat), KCN, survival time; type: in vivo, rats (wister-strain); conditions: KCN 10 mg/kg i.p.
[11] = system: distribution of ^14 C - glucose to brain; experiment: Distribution of ^14 C - glucose(U) to brain; type: in vivo, mouse; conditions: for ^14 C-glucose, Brain / ^14 C-glucose, Brain/Plasma / ^14 C-glucose, Plasma: mouse, 300 mg/kg oral
Experimental: ^14 C - glucose(U) was given intravenously (1.0 μC/mouse), and the animals were killed by decapitation 10 minutes after ^14 C - glucose administration. 1-(3'-Pyridyl)-3-(2'-hydroxyethyl)thiourea HCl was given orally 300 mg/kg before ^14 C - glucose administration.

[12] = heart, 5 minutes before isoproterenol
[13] = heart, 10 minutes before isoproterenol
[14] = heart, 30 minutes before isoproterenol
[15] = heart, 60 minutes before isoproterenol

Q: What does the source list for `OCCNC(=S)Nc1cccnc1` [1-(3'-pyridyl)-3-(2'-hydroxyethyl)thiourea hydrochloride]?
A: effect on the increase in NEFA level ([1]; heart): antagonized; effect on the increase in lactate level ([1]; heart): antagonized; effect on the increase in pyruvate level ([1]; heart): antagonized; Glycogen [1, 12]: 5.68 ± 0.45 mg/g; Lactate [1, 12]: 123.2 ± 10.7 µg/g; NEFA [1, 12]: 4.26 ± 0.35 µM/g; Pyruvate [1, 12]: 38.4 ± 2.42 µg/g; TG [1, 12]: 2.15 ± 0.21 mg/g; Glycogen [1, 13]: 6.05 ± 0.51 mg/g; Lactate [1, 13]: 95.1 ± 8.2 µg/g; NEFA [1, 13]: 4.12 ± 0.29 µM/g; Pyruvate [1, 13]: 29.5 ± 3.15 µg/g; TG [1, 13]: 1.98 ± 0.13 mg/g; Glycogen [1, 14]: 6.97 ± 0.41 mg/g; Lactate [1, 14]: 92.5 ± 9.7 µg/g; NEFA [1, 14]: 3.87 ± 0.32 µM/g; Pyruvate [1, 14]: 25.2 ± 2.07 µg/g; TG [1, 14]: 1.87 ± 0.19 mg/g; Glycogen [1, 15]: 5.92 ± 0.62 mg/g; Lactate [1, 15]: 140.6 ± 12.3 µg/g; NEFA [1, 15]: 4.58 ± 0.36 µM/g; Pyruvate [1, 15]: 39.3 ± 2.76 µg/g; TG [1, 15]: 2.25 ± 0.18 mg/g; effect on the decrease in cardiac glycogen content [1]: antagonized; significance of the antagonizing effect ([1]; administered 10 - 30 minutes before isoproterenol): significantly; increase percent of the survival time to that of control ([2]; 30 mg/kg i.v.): 185%; increase percent of the survival time to that of control ([2]; 30 mg/kg p.o.): 42%; increase percent of the survival time to that of control ([2]; 100 mg/kg p.o.): 189%; increase percent of the survival time to that of control ([2]; 100 mg/kg s.c.): 254%; increase percent of the survival time to that of control ([2]; 300 mg/kg p.o.): 287%; acute lethal toxic symptoms (Acute toxicity; dose of LD50 or more): sedation and paralysis; LD50 (Acute toxicity; iv): 640 mg/kg; LD50 (Acute toxicity; po): > 2000 mg/kg; LD50 (Acute toxicity; sc): 1350 mg/kg; survival in comparison with the survival time of each control group [3]: survived twice or more; increase percent of the survival time to that of control ([4]; 30 mg/kg i.v.): 141%; increase percent of the survival time to that of control ([4]; 30 mg/kg p.o.): 35%; increase percent of the survival time to that of control ([4]; 100 mg/kg p.o.): 64%; increase percent of the survival time to that of control ([4]; 100 mg/kg s.c.): 128%; increase percent of the survival time to that of control ([4]; 300 mg/kg p.o.): 132%; ATPase (Na^+, K^+ - ATPase; 100 mg/kg p.o.): 1.180 ± 0.094 μ moles Pi/g/hr; ATPase (Na^+, K^+ - ATPase; 300 mg/kg p.o.): 1.226 ± 0.080 μ moles Pi/g/hr; effect on the decrease in Na^+, K^+ - ATPase activity (Na^+, K^+ - ATPase; 300 mg/kg p.o.): protective effect; increase percent of the survival time to that of control ([5]; 30 mg/kg i.v.): 148%; increase percent of the survival time to that of control ([5]; 30 mg/kg p.o.): 36%; increase percent of the survival time to that of control ([5]; 100 mg/kg p.o.): 75%; increase percent of the survival time to that of control ([5]; 100 mg/kg s.c.): 192%; increase percent of the survival time to that of control ([5]; 300 mg/kg p.o.): 153%; increase percent of the survival time to that of control ([6]; 30 mg/kg i.v.): 135%; increase percent of the survival time to that of control ([6]; 100 mg/kg s.c.): 132%; increase percent of the survival time to that of control ([7]; 30 mg/kg i.v.): 164%; increase percent of the survival time to that of control ([7]; 30 mg/kg p.o.): 105%; increase percent of the survival time to that of control ([7]; 100 mg/kg p.o.): 165%; increase percent of the survival time to that of control ([7]; 100 mg/kg s.c.): 147%; increase percent of the survival time to that of control ([7]; 300 mg/kg p.o.): 231%; H2O, Gray ([8]; 30 mg/kg p.o.): 81.6%; H2O, White ([8]; 30 mg/kg p.o.): 79.5%; H2O, Gray ([8]; 100 mg/kg p.o.): 80.2%; H2O, White ([8]; 100 mg/kg p.o.): 78.3%; H2O, Gray ([8]; 300 mg/kg p.o.): 79.4%; H2O, White ([8]; 300 mg/kg p.o.): 77.8%; H2O, Gray matter ([9]; 100 mg/kg p.o.): 81.5%; H2O, White matter ([9]; 100 mg/kg p.o.): 80.3%; effect on the increase in water content ([9]; 300 mg/kg p.o.): protective effect; H2O, Gray matter ([9]; 300 mg/kg p.o.): 79.7%; H2O, White matter ([9]; 300 mg/kg p.o.): 79.5%; increase percent of the survival time to that of control ([10]; 30 mg/kg i.v.): 174%; increase percent of the survival time to that of control ([10]; 30 mg/kg p.o.): 45%; increase percent of the survival time to that of control ([10]; 100 mg/kg p.o.): 116%; increase percent of the survival time to that of control ([10]; 100 mg/kg s.c.): 169%; increase percent of the survival time to that of control ([10]; 300 mg/kg p.o.): 187%; distribution of ^14 C - glucose to brain ([11]; 300 mg/kg orally, given 60 - 120 minutes before ^14 C - glucose): increased; ^14 C-glucose, Brain ([11]; 30 min before ^14 C-glucose): 88.90 ± 12.69 × 10^3 dpm/g; ^14 C-glucose, Brain/Plasma ([11]; 30 min before ^14 C-glucose): 2.52 ± 0.59; ^14 C-glucose, Plasma ([11]; 30 min before ^14 C-glucose): 35.22 ± 2.36 × 10^3 dpm/ml; ^14 C-glucose, Brain ([11]; 60 min before ^14 C-glucose): 93.76 ± 5.33 × 10^3 dpm/g; ^14 C-glucose, Brain/Plasma ([11]; 60 min before ^14 C-glucose): 2.48 ± 0.44; ^14 C-glucose, Plasma ([11]; 60 min before ^14 C-glucose): 37.88 ± 3.15 × 10^3 dpm/ml; ^14 C-glucose, Brain ([11]; 120 min before ^14 C-glucose): 96.80 ± 6.80 × 10^3 dpm/g; ^14 C-glucose, Brain/Plasma ([11]; 120 min before ^14 C-glucose): 2.69 ± 0.15; ^14 C-glucose, Plasma ([11]; 120 min before ^14 C-glucose): 35.93 ± 0.95 × 10^3 dpm/ml

Reference: US3992391A, “1,3-Disubstituted thiourea compounds and preparation thereof” (priority 1972, dated 1976)
